Results reported in the NIST ThermoML archive (doi:10.1021/je700260f).
Numbers after ± are expanded uncertainties.

Details: 323.14 K, Liquid, Vibrating tube method

FC(C(F)(F)F)C(F)(F)F [1,1,1,2,3,3,3-heptafluoropropane]
Details | mass density [kg/m3]
10190 kPa | 1363.3 ± 1.5
10206 kPa | 1363.7 ± 1.5
10232 kPa | 1363.8 ± 1.5
10249 kPa | 1363.9 ± 1.5
10273 kPa | 1364 ± 1.5
10288 kPa | 1364 ± 1.5
10306 kPa | 1364.3 ± 1.5
10331 kPa | 1364.4 ± 1.5
10619 kPa | 1366.6 ± 1.5
10640 kPa | 1366.6 ± 1.5
10664 kPa | 1366.8 ± 1.5
10682 kPa | 1367 ± 1.5
10704 kPa | 1367.2 ± 1.5
10722 kPa | 1367.2 ± 1.5
10915 kPa | 1368.6 ± 1.5
10935 kPa | 1368.7 ± 1.5
10959 kPa | 1368.8 ± 1.5
10980 kPa | 1369 ± 1.5
10998 kPa | 1369.1 ± 1.5
11021 kPa | 1369.4 ± 1.5
11042 kPa | 1369.4 ± 1.5
11057 kPa | 1369.5 ± 1.5
11076 kPa | 1369.7 ± 1.5
11096 kPa | 1369.7 ± 1.5
11117 kPa | 1370 ± 1.5
11135 kPa | 1370.2 ± 1.5
11157 kPa | 1370.3 ± 1.5
11177 kPa | 1370.4 ± 1.5
11197 kPa | 1370.5 ± 1.5
11213 kPa | 1370.6 ± 1.5
11232 kPa | 1370.9 ± 1.5
11253 kPa | 1370.9 ± 1.5
11267 kPa | 1370.9 ± 1.5
11292 kPa | 1371.1 ± 1.5
11315 kPa | 1371.3 ± 1.5
11336 kPa | 1371.4 ± 1.5
11363 kPa | 1371.8 ± 1.5
11565 kPa | 1373.2 ± 1.5
11585 kPa | 1373.1 ± 1.5
11609 kPa | 1373.4 ± 1.5
11632 kPa | 1373.4 ± 1.5
11649 kPa | 1373.5 ± 1.5
11666 kPa | 1373.6 ± 1.5
11689 kPa | 1373.9 ± 1.5
11707 kPa | 1374 ± 1.5
11729 kPa | 1374.2 ± 1.5
11754 kPa | 1374.2 ± 1.5
11777 kPa | 1374.4 ± 1.5
11792 kPa | 1374.5 ± 1.5
11810 kPa | 1374.6 ± 1.5
11827 kPa | 1374.8 ± 1.5
11848 kPa | 1374.9 ± 1.5
11870 kPa | 1375 ± 1.5
11893 kPa | 1375.2 ± 1.5
11908 kPa | 1375.3 ± 1.5
11927 kPa | 1375.4 ± 1.5
11947 kPa | 1375.6 ± 1.5
11965 kPa | 1375.6 ± 1.5
11993 kPa | 1375.7 ± 1.5
12013 kPa | 1376 ± 1.5
12029 kPa | 1376.1 ± 1.5
12054 kPa | 1376.2 ± 1.5
12076 kPa | 1376.4 ± 1.5
12099 kPa | 1376.6 ± 1.5
12118 kPa | 1376.8 ± 1.5
12139 kPa | 1376.8 ± 1.5
12160 kPa | 1377 ± 1.5
12176 kPa | 1376.9 ± 1.5
12200 kPa | 1377.2 ± 1.5
12222 kPa | 1377.4 ± 1.5
12238 kPa | 1377.4 ± 1.5
12262 kPa | 1377.6 ± 1.5
12274 kPa | 1377.8 ± 1.5
12293 kPa | 1377.8 ± 1.5
12313 kPa | 1377.9 ± 1.5
12329 kPa | 1378.1 ± 1.5
12350 kPa | 1378.1 ± 1.5
12373 kPa | 1378.3 ± 1.5
12391 kPa | 1378.5 ± 1.5
12410 kPa | 1378.6 ± 1.5
12427 kPa | 1378.8 ± 1.5
12447 kPa | 1378.8 ± 1.5
12464 kPa | 1378.9 ± 1.5
12483 kPa | 1379.1 ± 1.5
12497 kPa | 1379.2 ± 1.5
12514 kPa | 1379.4 ± 1.5
12536 kPa | 1379.3 ± 1.5
12551 kPa | 1379.4 ± 1.5
12573 kPa | 1379.6 ± 1.5
12589 kPa | 1379.7 ± 1.5
12612 kPa | 1379.9 ± 1.5
12627 kPa | 1380 ± 1.5
12652 kPa | 1380.2 ± 1.5
12677 kPa | 1380.3 ± 1.5
12736 kPa | 1380.7 ± 1.5
12755 kPa | 1380.8 ± 1.5
13031 kPa | 1382.6 ± 1.5
13052 kPa | 1382.8 ± 1.5
13077 kPa | 1382.9 ± 1.5
13095 kPa | 1383 ± 1.5
13117 kPa | 1382.9 ± 1.5
13141 kPa | 1383.4 ± 1.5
13161 kPa | 1383.4 ± 1.5
13263 kPa | 1384.2 ± 1.5
13295 kPa | 1384.2 ± 1.5
13310 kPa | 1384.3 ± 1.5
13334 kPa | 1384.5 ± 1.5
13348 kPa | 1384.5 ± 1.5
13370 kPa | 1384.7 ± 1.5
13389 kPa | 1384.9 ± 1.5
13415 kPa | 1385 ± 1.5
13433 kPa | 1385 ± 1.5
13456 kPa | 1385.2 ± 1.5
13476 kPa | 1385.4 ± 1.5
13497 kPa | 1385.5 ± 1.5
13522 kPa | 1385.7 ± 1.5
13541 kPa | 1385.7 ± 1.5
13570 kPa | 1385.9 ± 1.5
13595 kPa | 1386 ± 1.5
13614 kPa | 1386.2 ± 1.5
13637 kPa | 1386.4 ± 1.5
13663 kPa | 1386.4 ± 1.5
13682 kPa | 1386.6 ± 1.5
13710 kPa | 1386.8 ± 1.5
13870 kPa | 1387.7 ± 1.5
14734 kPa | 1393 ± 1.6
14760 kPa | 1393 ± 1.6
14781 kPa | 1393.3 ± 1.6
14798 kPa | 1393.4 ± 1.6
14818 kPa | 1393.6 ± 1.6
14842 kPa | 1393.7 ± 1.6
14866 kPa | 1393.6 ± 1.6
14883 kPa | 1393.8 ± 1.6
14902 kPa | 1394 ± 1.6
14919 kPa | 1394.1 ± 1.6
14940 kPa | 1394.1 ± 1.6
14959 kPa | 1394.3 ± 1.6
14983 kPa | 1394.4 ± 1.6
15001 kPa | 1394.4 ± 1.6
15028 kPa | 1394.7 ± 1.6
15049 kPa | 1394.9 ± 1.6
15077 kPa | 1395 ± 1.6
15098 kPa | 1395 ± 1.6
15122 kPa | 1395.1 ± 1.6
15150 kPa | 1395.5 ± 1.6
15173 kPa | 1395.6 ± 1.6
15198 kPa | 1395.7 ± 1.6
15219 kPa | 1395.7 ± 1.6
15265 kPa | 1396.1 ± 1.6
15284 kPa | 1396.2 ± 1.6
15307 kPa | 1396.3 ± 1.6
15326 kPa | 1396.4 ± 1.6
15346 kPa | 1396.5 ± 1.6
15368 kPa | 1396.6 ± 1.6
15389 kPa | 1396.7 ± 1.6
15413 kPa | 1396.8 ± 1.6
15436 kPa | 1397 ± 1.6
15456 kPa | 1397.1 ± 1.6
15488 kPa | 1397.3 ± 1.6
15504 kPa | 1397.5 ± 1.6
15524 kPa | 1397.5 ± 1.6
15550 kPa | 1397.7 ± 1.6
15575 kPa | 1397.8 ± 1.6
15602 kPa | 1398 ± 1.6
15630 kPa | 1398.1 ± 1.6
15655 kPa | 1398.2 ± 1.6
15678 kPa | 1398.5 ± 1.6
16094 kPa | 1400.8 ± 1.6
16115 kPa | 1400.9 ± 1.6
16141 kPa | 1401 ± 1.6
16161 kPa | 1401.1 ± 1.6
16188 kPa | 1401.4 ± 1.6
17246 kPa | 1407 ± 1.6
17274 kPa | 1407.3 ± 1.6
17301 kPa | 1407.6 ± 1.6
17357 kPa | 1407.6 ± 1.6
17403 kPa | 1407.9 ± 1.6
17424 kPa | 1408 ± 1.6
17446 kPa | 1408.2 ± 1.6
17472 kPa | 1408.3 ± 1.6
17493 kPa | 1408.4 ± 1.6
17519 kPa | 1408.6 ± 1.6
17539 kPa | 1408.5 ± 1.6
17574 kPa | 1408.8 ± 1.6
17597 kPa | 1408.9 ± 1.6
17623 kPa | 1409 ± 1.6
17646 kPa | 1409.2 ± 1.6
17666 kPa | 1409.3 ± 1.6
17693 kPa | 1409.4 ± 1.6
17717 kPa | 1409.6 ± 1.6
17741 kPa | 1409.7 ± 1.6
17761 kPa | 1409.8 ± 1.6
17791 kPa | 1410 ± 1.6
17819 kPa | 1410.1 ± 1.6
17843 kPa | 1410.3 ± 1.6
17864 kPa | 1410.4 ± 1.6
17920 kPa | 1410.7 ± 1.6
18206 kPa | 1412.2 ± 1.6
18259 kPa | 1412.5 ± 1.6
18289 kPa | 1412.6 ± 1.6
18339 kPa | 1412.9 ± 1.6
18360 kPa | 1412.9 ± 1.6
18390 kPa | 1413.2 ± 1.6
18414 kPa | 1413.2 ± 1.6
18445 kPa | 1413.4 ± 1.6
